Experimental data reported in patent US20260191815A1, “THIOACRYLAMIDE DERIVATIVES FOR USE IN THE PREVENTION OR TREATMENT OF LIVER FIBROSIS” (CMR CUREDIAB METABOLIC RESEARCH GMBH, priority 2022, published 2026).

Columns and labels:
[1] = system: fibronectin 1 (FN1) protein in LX2 cells; test: Simple Western of FN1 protein in TGF-β1-stimulated LX2 hepatic stellate cells; format: cell-based, human; conditions: for upregulation of FN1 in TGF-β1-treated LX2 cells: 10 μM, 30 min pretreatment, then 5 ng/ml TGF-β1 for 24 h; for protein abundance of FN1: sole treatment 10 μM for 24 h, LX2 cells, no TGF-β1
Description: The human hepatic stellate cell line LX2 was purchased from Merck. The cells were used up to passage ten and incubated under sterile conditions at 37° C. and 5% CO2. The cells were cultivated in medium containing Dulbecco's Modified Eagle's Medium with 4.5 g/l glucose (ThermoFisher), 4 mmol/l glutamine (ThermoFisher), 2% fetal bovine serum (FBS) (Merck), 100 U/ml penicillin and 100 μg/ml streptomycin (Merck). After 2 days, LX2 cells were starved for FBS for 24 h and then pretreated with 10 μM HK1 (Taros Chemicals GmbH & Co. KG) or 10 μM HK3 (Taros Chemicals GmbH & Co. KG) for 30 min. Subsequently, 5 ng/ml recombinant TGF-β1 (R&D Systems, Minneapolis, MN, USA) was added to the hepatic stellate cell cultures for 24 h. LX2 cells were also incubated with 5 ng/ml TGF-β1 alone as positive control for the hepatic stellate cell activation. Recombinant TGF-β1 was dissolved in sterile 4 mmol/l HCl (Merck) containing 0.1% bovine serum albumin (Roth Karlsruhe, Germany) as carrier protein. HK1 and HK3 were dissolved in sterile dimethyl sulfoxide (DMSO) (Sigma-Aldrich, Munich, Germany). Stimulations with 10 μM HK1, 10 μM HK3 and the corresponding vehicles (HCl and DMSO with or without HCl) alone for 24 h were also included as treatments.
For the measurement of the pro-fibrotic proteins, Western Blotting was performed. Proteins were extracted from whole cell lysate of LX2 cells using RIPA lysis buffer containing 50 mmol/l Tris-HCl (pH 8.0), 150 mmol/l NaCl, 1% IGEPAL® CA-630, 0.5% sodium deoxycholate, 0.1% sodium dodecyl sulfate, 10% PhosSTOP Phosphatase Inhibitor Cocktail (Roche, Basel, Switzerland) and 10% cOmplete Mini Protease Inhibitor Cocktail (Roche). Lysates were centrifuged at 14850×g for 15 min at 4° C. Then, the total protein content of the lysates was determined using a bicinchoninic acid protein assay (ThermoFisher Scientific) in accordance with the manufacturer's instructions. The quantification of protein abundance was performed by Simple Western size-based assays using a 12-230 kDa and 66-440 kDa Separation Module (ProteinSimple, San Jose, CA, USA) according to the manufacturer's instructions. This fully automated Western blotting system is based on a capillary electrophoresis technology. The separation, immobilization to the capillary wall via a proprietary, photoactivated capture chemistry and immunodetection of the proteins using a horseradish peroxidase (HRP)-conjugated secondary antibody and chemiluminescent substrate take place directly in the capillary without gel separation and transfer steps to blotting paper. The chemiluminescence is measured at multiple exposure times and automatically quantified by the Compass for Simple Western software (version 4.1.0) (ProteinSimple). The chemiluminescent signal for immunodetected proteins, which can be represented as an electropherogram or virtual blot-like image, is automatically quantified by calculation of the area under the curve of the peak.
The software reports the molecular weight, the area (in an arbitrary unit and in percent) and signal to noise ratio for each protein detected. The primary antibodies for the recognition of endogenous levels of total alpha-1 type 1 collagen (COL1A1) protein (#72026) and total fibronectin 1 (FN1) protein (#26836) were purchased from Cell Signaling Technology (Danvers, MA, USA). The anti-rabbit HRP-linked secondary antibody was from ProteinSimple. […]
Differences were analysed by one-way ANOVA followed by the Tukey method as correction for multiple testing.

[2] = system: caspase 3/7 activity in HepG2 cells; test: Caspase 3/7 activity provoked by palmitate in HepG2 cells; format: cell-based; conditions: for reduction of the caspase 3/7 activity provoked by palmitate, compared among thioacrylamide derivatives: 100 nM + palmitate 200 μM, n=4; for activity at 10 µM: Homo sapiens, 10 μM pre-treatment 30 min + palmitate 200 μM, 24 h, read-out: caspase 3/7 activity, % of control
Description: The potential protective effect of HK1 and HK3 on caspase 3/7 activity in HepG2 cells and primary human hepatocytes was analysed.
HepG2 cells were obtained from Merck (Darmstadt, Germany) (ECACC-certified), while primary human hepatocytes were obtained from Thermo Fisher Scientific (Waltham, MA, USA), and all were cultured according to the instructions of the respective manufacturers. During experiments, cells were cultured in serum-free medium. Unless otherwise stated, cells were treated with 200 μM bovine serum albumin (BSA)-conjugated palmitate (Cayman Chemicals, Ann Arbor, MI) alone or in combination with 10 μM HK1 (Taros Chemicals GmbH & Co. KG, Dortmund, Germany) and HK3 (Taros Chemicals GmbH & Co. KG, Dortmund, Germany) 30 min prior to palmitate exposure for 24 hours. The vehicle BSA was used according to the palmitate concentration and DMSO according to HK1 and HK3 concentration. 2 μM Staurosporine (Abcam, Cambridge, GB) was used as a positive and 100 μM Caspase 3/7 inhibitor (CI) (Cayman Chemicals) as a negative control.
Differences were analysed by one-way ANOVA.
A hepatoprotective effect was determined as described in Example 4. A treatment was performed with HK1, HK2, HK3, HK4 or HK5 (100 nM) either alone or in combination with palmitate (200 μM).
Differences were analysed by one-way ANOVA, n=4.

Row | SMILES | upregulation of FN1 in TGF-β1-treated LX2 cells [1] | protein abundance of FN1 [1] | reduction of the caspase 3/7 activity provoked by palmitate, compared among thioacrylamide derivatives [2] | activity at 10 µM [2]
1 | Cc1cc(NC(=S)/C(C#N)=C(\O)C2CC2)ccc1[N+](=O)[O-] [HK3, 2-Cyano-3-cyclopropyl-3-hydroxy-N-(3-methyl-4-nitro-phenyl)-thioacrylamide] | completely suppressed | no impact | strongest reduction | 42.3%
2 | Cc1cc(NC(=S)/C(C#N)=C(\O)C2CC2)ccc1F [HK1, 2-Cyano-3-cyclopropyl-N-(4-fluoro-3-methyl-phenyl)-3-hydroxy-thioacrylamide] | completely suppressed | no impact | stronger reduction | 263%
